{
  "source": "patent US20090203783A1",
  "about": "“THERAPEUTIC AGENT FOR ACUTE CEREBRAL INFARCT” (ONO PHARMACEUTICAL CO., LTD., priority 2005, published 2009)",
  "assay_type_in_all_cases": "in vivo, human",
  "key": {"[1]": {"tested_on": "patients of acute cerebral infarction", "assay": "Example 3 clinical trial, efficacy evaluation items", "details": "7 days", "procedure": "(§1) As a clinical trial, a double blind placebo-controlled parallel group study was carried out under the following conditions using patients of acute cerebral infarction as the object.\n(§2) A total of 7 times for one hour intravenous continuous administration at intervals of about 24 hours in each group (administration period: 7 days).\n(§3) Symptoms of patients were evaluated after about 1 month or after about 3 months from the commencement of the administration, in accordance with the methods described in the aforementioned [EFFICACY EVALUATION ITEMS] of Example 1."}, "[2]": {"tested_on": "patients of acute cerebral infarction", "assay": "Example 1 clinical trial, safety (adverse events)", "details": "4 or 10 mg/kg/hr iv, 5 days", "procedure": "(§4) As a clinical trial, a double blind placebo-controlled parallel group study was carried out under the following conditions with patients of acute cerebral infarction as the object.\n(§5) A total of 5 times for one hour intravenous continuous administration at intervals of about 24 hours in each group (administration period: 5 days).\n(§6) Frequency of adverse event and contents thereof (symptom, causal relation and the like)"}, "[3]": {"tested_on": "patients of acute cerebral infarction", "assay": "Example 1 clinical trial, modified Rankin Scale (mRS)", "details": "10 mg/kg/hr iv, 5 days, after 3 months, administration 5.5 to 6 hours from onset", "procedure": "as §4\n(c) A patient who undergoes randomization by the study within 6 hours from the first infarction symptom and undergoes the first administration by the blind test (When the patient awoke under an infarction symptom which was not observed before sleeping, start of the infarction symptom is regarded as the started time of sleeping. When the started time is not clear, start of the infarction symptom is regarded as the time when the patient was lastly normal.);\n(f) A patient defined as a score of from 11 to 22 on NIH Stroke Scale, within 1 hour before the first administration;\nas §5\n(§7) Evaluation method: Symptoms of patients were evaluated in accordance with the aforementioned list of marks of NIH Stroke Scale, about 1 month after or about 3 months after the commencement of administration. (2) Modified Rankin Scale (mRS) Evaluation method: Symptoms of patients were scored by classifying the symptoms of patients into the following grades of from 0 to 5, about 1 month after or about 3 months after the commencement of administration. 0: No symptoms at all. 1: No significant disability despite symptoms; able to carry out all usual duties and activities. 2: Slight disability; unable to carry out all previous activities, but able to look after own affairs without assistance. 3: Moderate disability; requiring some help, but able to walk without assistance. 4: Moderately severe disability; unable to walk without assistance and unable to attend to own bodily needs without assistance. 5: Severe disability; bedridden, incontinent and requiring constant nursing care and attention."}, "[4]": {"tested_on": "patients of acute cerebral infarction", "assay": "Example 2 clinical trial, safety (adverse events)", "details": "0.4, 4 or 8 mg/kg/hr iv, 7 days", "procedure": "as §1, §2, §6"}, "[5]": {"tested_on": "patients of acute cerebral infarction", "assay": "Example 2 clinical trial, modified Rankin Scale (mRS)", "details": "7 days", "procedure": "as §7, §1\n(e) A patient whose period of time from the onset of cerebral infarction until commencement of administration is 72 hour or less;\nas §2, §3"}, "[6]": {"tested_on": "patients of acute cerebral infarction", "assay": "Example 3 clinical trial, safety (adverse events)", "details": "8 or 12 mg/kg/hr iv, 7 days", "procedure": "as §1, §2, §6"}, "[7]": {"tested_on": "patients of acute cerebral infarction", "assay": "Example 1 clinical trial, Stroke Impact Scale (SIS) items 1a-1d, 4a", "details": "about 3 months, 5 hours or more from onset", "procedure": "as §4, §5\nBased on the results of the above-mentioned efficacy evaluation items and safety evaluation items, therapeutic effect of the intravenous continuous administration of (2R)-2-propyloctanoic acid to cerebral infarction patients was evaluated. Additionally, in order to examine the therapeutic effect more in detail, improving effect of the intravenous continuous administration of (2R)-2-propyloctanoic acid for each of (a) [Arm strength], (b) [Grip], (c) strength of the legs [Leg], (d) strength of the ahead of the ankle [Ankle/foot], and (e) language [Naming] was evaluated after about 3 months from the commencement of administration, using the items 1a, 1b, 1c, Id and 4a of the Stroke Impact Scale (SIS). In this connection, the Stroke Impact Scale is a conventionally known evaluation method and can be obtained from an internet <URL: www.chrp.org/, www.strokecenter.org, www2.kumc.edu/coa/> and the like. Specifically, the evaluation of 1a, 1b, 1c and id is carried out by a mode of selecting any one of the answers, A lot of strength, Quite a bit of strength, Some strength, A little strength and No strength at all, for the following questions\nand five scores, four scores, 3 scores, 2 scores and 1 score are given in response to the respective answers.\nAdditionally, the evaluation of 4a is carried out by a mode of selecting any one of the answers, Not difficult at all, A little difficult, Somewhat difficult and Very difficult and Extremely difficult, for the following questions\nIn this case, the group P represents a placebo administration group, and the group L represents a (2R)-2-propyloctanoic acid 4 mg/kg/hr administration group, and the group H represents a (2R)-2-propyloctanoic acid 10 mg/kg/hr administration group. The evaluation result of each item was shown by a form of “(the number of patients having an evaluation score of 4 or more)/(the number of patients evaluated)”."}},
  "data": [
    {"smiles": "CCCCCC[C@@H](CCC)C(=O)O", "note": "[(2R)-2-propyloctanoic acid]", "values": [
      {"measurement": "improving effects of the items shown in the efficacy evaluation items", "setting": "[1]; 8 mg/kg/hr iv", "result": "excellent improving effects"},
      {"measurement": "improving effects of the items shown in the efficacy evaluation items", "setting": "[1]; 12 mg/kg/hr iv", "result": "excellent improving effects"},
      {"measurement": "severe adverse events having a different frequency between drug group and placebo group", "setting": "[2]", "result": "not found"},
      {"measurement": "side effect in which its frequency increases depending on the dose", "setting": "[2]", "result": "not found"},
      {"measurement": "ratio of the number of patients whose mRS scores became 0 to 3", "setting": "[3]", "result": 31.5, "unit": "%"},
      {"measurement": "ratio of the number of patients whose mRS scores became 0 to 3", "setting": "[3]; patients of less than 80 years, NIH Stroke Scale 11 to 18", "result": 46.0, "unit": "%"},
      {"measurement": "ratio of the number of patients whose mRS scores became 0 to 3", "setting": "[3]; patients of less than 80 years", "result": 39.0, "unit": "%"},
      {"measurement": "severe adverse event having a different frequency between drug group and placebo group", "setting": "[4]", "result": "not found"},
      {"measurement": "side effect in which its frequency increases depending on the dose", "setting": "[4]", "result": "not found"},
      {"measurement": "ratio of mRS occupying 0 to 2", "setting": "[5]; 0.4 mg/kg/hr iv, after 3 months, JCS I-1 to I-3 and NIH Stroke Scale 7 or more", "result": 48.1, "unit": "%"},
      {"measurement": "ratio of mRS occupying 0 to 2", "setting": "[5]; 4 mg/kg/hr iv, after 3 months, JCS I-1 to I-3 and NIH Stroke Scale 7 or more", "result": 47.9, "unit": "%"},
      {"measurement": "ratio of mRS occupying 0 to 2", "setting": "[5]; 8 mg/kg/hr iv, after 1 month", "result": 45.7, "unit": "%"},
      {"measurement": "ratio of mRS occupying 0 to 2", "setting": "[5]; 8 mg/kg/hr iv, after 3 months", "result": 58.1, "unit": "%"},
      {"measurement": "ratio of mRS occupying 0 to 2", "setting": "[5]; 8 mg/kg/hr iv, after 3 months, JCS I-1 to I-3 and NIH Stroke Scale 7 or more", "result": 63.0, "unit": "%"},
      {"measurement": "ratio of mRS occupying 0 to 2", "setting": "[5]; 8 mg/kg/hr iv, after 3 months, patients with JCS I-1 to I-3 before administration", "result": 69.1, "unit": "%"},
      {"measurement": "severe adverse event having a different frequency between drug group and placebo group", "setting": "[6]", "result": "not found"},
      {"measurement": "side effect in which its frequency increases depending on the dose", "setting": "[6]", "result": "not found"},
      {"measurement": "SIS Ankle/foot: (number of patients having an evaluation score of 4 or more)/(number of patients evaluated)", "setting": "[7]; Group H, 10 mg/kg/hr", "result": "60/100"},
      {"measurement": "SIS Ankle/foot: ratio of patients with evaluation score of 4 or more", "setting": "[7]; Group H, 10 mg/kg/hr", "result": "(60%)"},
      {"measurement": "SIS Arm strength: (number of patients having an evaluation score of 4 or more)/(number of patients evaluated)", "setting": "[7]; Group H, 10 mg/kg/hr", "result": "44/100"},
      {"measurement": "SIS Arm strength: ratio of patients with evaluation score of 4 or more", "setting": "[7]; Group H, 10 mg/kg/hr", "result": "(44%)"},
      {"measurement": "SIS Grip: (number of patients having an evaluation score of 4 or more)/(number of patients evaluated)", "setting": "[7]; Group H, 10 mg/kg/hr", "result": "46/100"},
      {"measurement": "SIS Grip: ratio of patients with evaluation score of 4 or more", "setting": "[7]; Group H, 10 mg/kg/hr", "result": "(46%)"},
      {"measurement": "SIS Leg: (number of patients having an evaluation score of 4 or more)/(number of patients evaluated)", "setting": "[7]; Group H, 10 mg/kg/hr", "result": "59/100"},
      {"measurement": "SIS Leg: ratio of patients with evaluation score of 4 or more", "setting": "[7]; Group H, 10 mg/kg/hr", "result": "(59%)"},
      {"measurement": "SIS Naming: (number of patients having an evaluation score of 4 or more)/(number of patients evaluated)", "setting": "[7]; Group H, 10 mg/kg/hr", "result": "65/100"},
      {"measurement": "SIS Naming: ratio of patients with evaluation score of 4 or more", "setting": "[7]; Group H, 10 mg/kg/hr", "result": "(65%)"},
      {"measurement": "SIS Ankle/foot: (number of patients having an evaluation score of 4 or more)/(number of patients evaluated)", "setting": "[7]; Group L, 4 mg/kg/hr", "result": "39/88"},
      {"measurement": "SIS Ankle/foot: ratio of patients with evaluation score of 4 or more", "setting": "[7]; Group L, 4 mg/kg/hr", "result": "(44%)"},
      {"measurement": "SIS Arm strength: (number of patients having an evaluation score of 4 or more)/(number of patients evaluated)", "setting": "[7]; Group L, 4 mg/kg/hr", "result": "34/88"},
      {"measurement": "SIS Arm strength: ratio of patients with evaluation score of 4 or more", "setting": "[7]; Group L, 4 mg/kg/hr", "result": "(39%)"},
      {"measurement": "SIS Grip: (number of patients having an evaluation score of 4 or more)/(number of patients evaluated)", "setting": "[7]; Group L, 4 mg/kg/hr", "result": "36/88"},
      {"measurement": "SIS Grip: ratio of patients with evaluation score of 4 or more", "setting": "[7]; Group L, 4 mg/kg/hr", "result": "(41%)"},
      {"measurement": "SIS Leg: (number of patients having an evaluation score of 4 or more)/(number of patients evaluated)", "setting": "[7]; Group L, 4 mg/kg/hr", "result": "46/88"},
      {"measurement": "SIS Leg: ratio of patients with evaluation score of 4 or more", "setting": "[7]; Group L, 4 mg/kg/hr", "result": "(52%)"},
      {"measurement": "SIS Naming: (number of patients having an evaluation score of 4 or more)/(number of patients evaluated)", "setting": "[7]; Group L, 4 mg/kg/hr", "result": "58/88"},
      {"measurement": "SIS Naming: ratio of patients with evaluation score of 4 or more", "setting": "[7]; Group L, 4 mg/kg/hr", "result": "(66%)"}
    ]}
  ]
}
